{"source": "paper PMC12126525", "about": "“Mechanism of ATP hydrolysis in the Hsp70 BiP nucleotide-binding domain” (Nature Communications, 2025)", "key": {"[1]": {"biological_target": "T1, BiP NBD (Homo sapiens, UniProt P11021)", "T1 sequence (P11021 19-406)": "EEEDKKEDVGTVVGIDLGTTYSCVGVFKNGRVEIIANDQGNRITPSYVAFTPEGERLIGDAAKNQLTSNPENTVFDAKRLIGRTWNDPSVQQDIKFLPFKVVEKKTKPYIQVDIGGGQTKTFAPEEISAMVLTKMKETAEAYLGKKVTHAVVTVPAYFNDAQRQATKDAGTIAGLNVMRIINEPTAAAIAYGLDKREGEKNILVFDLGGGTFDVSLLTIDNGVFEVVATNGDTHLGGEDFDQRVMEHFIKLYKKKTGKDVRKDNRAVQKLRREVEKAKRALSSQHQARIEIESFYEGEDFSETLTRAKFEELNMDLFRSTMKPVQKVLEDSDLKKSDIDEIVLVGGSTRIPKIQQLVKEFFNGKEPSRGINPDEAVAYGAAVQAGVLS", "assay": "NMR titration (equilibrium methyl-TROSY) with phosphate", "assay_type": "binding", "design": "His6 (N, cleaved yes); made in house; host or cells: E. coli BL21-(DE3)-Lemo, pET28a vector", "conditions": "for Average IMABAADP.pi/IMABAADP: Supplementary Fig 12 f"}, "[2]": {"biological_target": "T1, BiP NBD", "assay": "Exchange spectroscopy (EXSY) NMR of NBD apo / NBD·Pi exchange", "assay_type": "binding", "design": "His6 (N, cleaved yes); made in house; host or cells: E. coli BL21-(DE3)-Lemo, pET28a vector", "conditions": "25 °C, 400 μM BiP NBD, 200 μM phosphate", "procedure": "^13C-edited 2D Exchange Spectroscopy (EXSY) experiments were acquired to characterize the exchange between the NBD apo and NDB·Pi state (k3on, k3off). For this purpose, we used a modified methyl-TROSY experiment with an additional EXSY element prior to acquisition (90° ^1H – EXSY mixing delay – 90° ^1H)[49]. A recycle delay of 1 s was used in all experiments. The EXSY mixing times were set to 5, 50, 100, 200, 300, 400, 500, 600, 800, 1000, 1250, 1500 ms, with an average acquisition time of 120 min for each spectrum. The EXSY experiments were performed at 25 °C with a [U-^2H, ^15N, ^12C], Met-[^13CH3]^ε and Ile-[^13CH3]^δ1 BiP NBD sample at 400 μM in NMR buffer (25 mM HEPES, pH 7.5, 150 mM KCl and 20 mM MgCl2) with 200 μM of phosphate."}}, "data": [{"smiles": "O=P(O)(O)O", "note": "[Pi]", "values": [{"measurement": "Kd", "setting": "[1]; 4MABA: Pi binding to NBD·MABA-ADP, 1 mM MABA-ADP", "value": "270 ± 40", "unit": "µM"}, {"measurement": "Kd", "setting": "[1]; KD3: Pi binding to apo NBD, 100 μM BiP NBD, 25 °C", "value": "310 ± 40", "unit": "µM"}, {"measurement": "Kd", "setting": "[1]; KD4: Pi binding to NBD·ADP, 1 mM ADP", "value": "280 ± 50", "unit": "µM"}, {"measurement": "Average IMABAADP.pi/IMABAADP", "setting": "[1]; Pi 0.15 mM", "value": 0.3154}, {"measurement": "Average IMABAADP.pi/IMABAADP", "setting": "[1]; Pi 0.25 mM", "value": 0.5289}, {"measurement": "Average IMABAADP.pi/IMABAADP", "setting": "[1]; Pi 0.5 mM", "value": 0.6366}, {"measurement": "koff3 (EXSY)", "setting": "[2]", "value": "1.32 ± 0.31", "unit": "s⁻¹"}, {"measurement": "kon3 (EXSY)", "setting": "[2]", "value": "5000 ± 2000", "unit": "M⁻¹ s⁻¹"}]}]}
